A short description of the data set: in vitro. To be noted: human, hela cells, % viability.

As to `OC[C@]1(c2ccccc2)CC[C@H](N2CCCC2)CC1` [CBK016010], the viability at 28.5 h, 10 µM is 85.5%.
Still for that read-out and setting: with `O=C(c1ccccc1)c1cc(Cl)ccc1-n1ccnc1Br` [CBK016011] the figure was 90.4%; with `Cc1nnc2n1-c1ccccc1SC(c1ccccc1)C2` (centres unmarked) [CBK016040], 92.9%; with `C/C(=N\NC(=O)C1CC1)c1ccc(C)cc1` [CBK016047], 90.7%.
Same read-out and setting: under `CCN(CC)CCn1nc2n(c1=O)-c1ccccc1SC(c1ccccc1)C2` (centres unmarked) [CBK016064] stands 91.9%; under `Cc1ccc2cn[nH]c2c1` [CBK016109], 123%.
The same measure, in the same setting: under `CCOC(=O)N/N=C1\CCCCC1CC` (centres unmarked) [CBK016112] stands 84.7%.
Consider `COC(=O)Nc1nc2cc3cn[nH]c3cc2[nH]1` [CBK016129], for which the viability at 28.5 h, 10 µM is 105%.
In the case of `COC(=O)N/N=C(/C)c1ccc(C)cc1` [CBK016149], the viability at 28.5 h, 10 µM amounted to 109%.
On the same count and under the same terms, with `Clc1ccccc1-c1nsc(Nc2ccccc2)n1` [CBK016152] the figure was 96.2%; with `O=C(OCCN1C[C@H]2CCCCC2C1c1ccccc1)c1ccc(Br)cc1` (some centres unmarked) [CBK016175C], 104%.
As to `Cn1c(=O)c(-c2ccccc2)nc2ccccc21` [CBK016192], the viability at 28.5 h, 10 µM came out at 143%.
Still for that read-out and setting: with `Oc1nc2ccccc2nc1-c1ccccc1` [CBK016193] the figure was 94.3%; with `O=C1CC2CC3CC2C(Sc2ccccc2)C3O1` (centres unmarked) [CBK016225], 97.4%; with `Fc1ccc(C2CCCN(CCCOc3cccc(F)c3)C2)cc1` (centres unmarked) [CBK016228B], 102%.
Take `COc1c(C(N)=O)c(O)c(OC)c2occc12` [CBK016255]: the viability at 28.5 h, 10 µM is 80.5%.
With `O=C(C[n+]1ccccc1)c1ccccc1Cl` [CBK016283B], the viability at 28.5 h, 10 µM came out at 112%.
Still for that read-out and setting: with `O=C(NCCCN1CCOCC1)Nc1cccc(Cl)c1Cl` [CBK016286] the figure was 85.5%; with `CC(=O)c1cc(C)c(C)cc1N` [CBK016322], 127%.
In the case of `Oc1cccnc1SCc1nc2ccccc2s1` [CBK016367], the viability at 28.5 h, 10 µM stood at 112%.
Still for that read-out and setting: under `Nc1ccc2nc(CCCCCC(=O)O)sc2c1` [CBK016399] stands 114%.
As for `O=C(NO)Nc1cc(Cl)cc(Cl)c1` [CBK016430], the viability at 28.5 h, 10 µM turned out to be 109%.
Same read-out and setting: with `O=c1cc(-c2ccc(Br)cc2)nc2[nH]ccn12` [CBK016446] the figure was 81%; with `CCOC(=O)N/N=C(/C)C(C)(C)C` [CBK016460], 105%.
The same measure, in the same setting: with `CN(C)CCCN[C@H]1CC[C@@H](c2ccccc2)CC1` [CBK016465] the figure was 96.2%; with `Cc1ccc(/C=N\NC(=O)c2cccc(Cl)c2)s1` [CBK016469], 90.8%; with `CCCC/C(=N/N=C(\CCCC)c1ccncc1)c1ccncc1` [CBK016521], 120%.
As for `O=c1cc(N2CCOCC2)oc2cccc(O)c12` [CBK016536], the viability at 28.5 h, 10 µM is 91.3%.
Still for that read-out and setting: with `NC(=O)c1cc2c(OCCCN3CCN(C(c4ccccc4)c4ccccc4)CC3)cccc2[nH]1` [CBK016544] the figure was 96%.
As for `Cc1cc2c(N3CCCC3)nc(N3CCCC3)nc2n1C` [CBK016633C], the viability at 28.5 h, 10 µM is 101%.
Consider `Cc1c(OCCC2CCCCN2C)ccc2c(=O)cc(N3CCOCC3)oc12` (centres unmarked) [CBK016644], for which the viability at 28.5 h, 10 µM came to 91.8%.
Turning to `S=C(NCc1ccc(Cl)c(Cl)c1)Nc1ccncc1` [CBK016649], the viability at 28.5 h, 10 µM was 84.9%.
Regarding `S=C(NCc1ccc(Cl)cc1)Nc1ccncc1` [CBK016651], the viability at 28.5 h, 10 µM was 79.5%.
Consider `CC(C)n1c(=O)c2c(-c3cc(C(C)(C)C)no3)ncn2c2ccccc21` [CBK016666], for which the viability at 28.5 h, 10 µM stood at 86.6%.
Consider `CCC(C)(C)Nc1cccnc1N(C)C1CCN(C(=O)c2cc3cc(N)ccc3[nH]2)CC1` [CBK016674], for which the viability at 28.5 h, 10 µM is 80.3%.
With `CCC(c1ccc2ccccc2c1)c1c(O)c2ccccc2oc1=O` (centres unmarked) [CBK016681], the viability at 28.5 h, 10 µM is 96.7%.
Same read-out and setting: with `C[C@@H]1c2c(C(=O)OC(C)(C)C)ncn2-c2ccc(F)cc2N1CC(=O)N1CCCC1` [CBK016704] the figure was 85.3%; with `c1c(C2CC2)[nH]c2nc(N3CCCC3)nc(N3CCCC3)c12` [CBK016707G], 113%.
The same measure, in the same setting: with `CCc1c(C)nn(-c2ccccc2Cl)c1-c1ccccc1` [CBK016736] the figure was 106%; with `CCc1c(C)nn(-c2ccccc2Br)c1-c1ccccc1` [CBK016757], 87.9%; with `CN(c1ncccc1C#N)C1CCN(CCC(N)=O)CC1` [CBK016793], 87.2%.
Same read-out and setting: under `CN(C)c1ncnc2[nH]ncc12` [CBK016810] stands 115%; under `CCNc1cccnc1N(CC)C1CCN(C(=O)c2cc3cc4c(cc3[nH]2)OCO4)CC1` [CBK016815], 111%; under `CC(C)c1ccnc(C(C)Sc2nc(N)c(Br)c(Cl)n2)c1` (centres unmarked) [CBK016828], 86.1%.
In the case of `COc1ccc(CCC(=O)c2cnc3sc4c(n23)CCCCC4)cc1` [CBK016849], the viability at 28.5 h, 10 µM stood at 109%.
Regarding `O=C(Nc1cccc(F)c1)c1cc2ccccc2cc1O` [CBK016863], the viability at 28.5 h, 10 µM came to 102%.
On the same count and under the same terms, with `O=C(Nc1cccc(Cl)c1)c1cc2cc(O)ccc2cc1O` [CBK016894] the figure was 98.2%; with `O=C1NCCN1c1cccc(Cl)c1` [CBK016915], 88.3%.
In the case of `Cc1csc2c(NC(C)C)ncnc12` [CBK017059], the viability at 28.5 h, 10 µM came to 95.7%.
The same measure, in the same setting: under `Cc1csc2ncnc(NCCc3ccccn3)c12` [CBK017060] stands 67.1%.
Take `CSc1nnc(-c2ccc(C(C)(C)C)cc2)n1Cc1ccco1` [CBK017071]: the viability at 28.5 h, 10 µM turned out to be 92.1%.
In the case of `Cc1cc(NC(=O)CCN2CCCCC2)no1` [CBK017079], the viability at 28.5 h, 10 µM is 99%.
Regarding `O=C1NCCCCC1N1CCS(=O)(=O)CC1` (centres unmarked) [CBK017083], the viability at 28.5 h, 10 µM is 99.2%.
Still for that read-out and setting: with `CC1CN(C(=O)NC(=O)c2ccc(-c3csnn3)cc2)CC(C)O1` (centres unmarked) [CBK017091] the figure was 87.7%; with `CSc1sc(NC(=O)Nc2cccc(C(F)(F)F)c2)cc1C#N` [CBK017114], 93.9%.
With `O=C(O)c1cccc2c1Sc1ccccc1O2` [CBK017129], the viability at 28.5 h, 10 µM stood at 90.8%.
On the same count and under the same terms, under `Nc1cc(Cl)cc2[nH]c(=O)c3cc(Cl)ccc3c12` [CBK017144] stands 73.3%; under `O=C(Nc1ccc(F)cc1)OCC1COc2ccccc2C1` (centres unmarked) [CBK017146], 85.5%; under `O=C1Nc2ccccc2C12NN=C(c1ccccc1)S2` (centres unmarked) [CBK017221], 100%.
The same measure, in the same setting: with `CCOC(=O)C(N)CSC1CC(=O)N(c2ccc(Br)cc2)C1=O` (centres unmarked) [CBK017250C] the figure was 102%.
The same measure, in the same setting: under `O=c1cc(NCc2ccncc2)c2ccccc2o1` [CBK017259] stands 93.5%; under `CS(=O)(=O)c1nc2cccnc2s1` [CBK017260], 95.2%; under `O=C1CSC(c2cccnc2)N1CCc1ccccn1` (centres unmarked) [CBK017292], 96.7%.
On to `Cc1cc(C)[n+]2c(n1)N(c1ccccc1)CC2` [CBK017327G], for which the viability at 28.5 h, 10 µM stood at 80.7%.
For `CCn1c(=O)c2c(cnn2C)c2ccccc21` [CBK017345], the viability at 28.5 h, 10 µM stood at 81.3%.
Regarding `N#Cc1[nH]nnc1-c1ccc(OC(F)(F)F)cc1` [CBK017386], the viability at 28.5 h, 10 µM was 95.1%.
On the same count and under the same terms, under `COc1cc(/C=C(/C#N)C(N)=O)cc(Br)c1O` [CBK017409] stands 88.1%; under `Nc1nnc(Nc2ccc(Cl)cc2)[nH]1` [CBK017433], 91.7%; under `CCCCCc1c(C)nc(-c2ccccn2)nc1O` [CBK017441], 86.4%.
On the same count and under the same terms, with `Nc1ncnc(Nc2cccc(F)c2)n1` [CBK017447] the figure was 91.7%; with `Cc1cc(C2(C(F)(F)F)C=C3c4ccccc4CC(C)(C)N3C2=O)cc(C)c1O` (centres unmarked) [CBK017463], 99.2%; with `OC[C@@H](c1ccccc1)N1CC[C@H]2c3ccc(Br)cc3CC[C@H]21` [CBK017507C], 84.4%.
Consider `CC(C)Cn1cnc2c(Cl)nc3ccccc3c21` [CBK017530], for which the viability at 28.5 h, 10 µM stood at 86.4%.
Regarding `CC(=O)NC[C@H]1CN(c2ccc(C3=CC[S+]([O-])CC3)c(F)c2)C(=O)O1` (some centres unmarked) [CBK017555], the viability at 28.5 h, 10 µM is 92.5%.
Still for that read-out and setting: with `CS(=O)(=O)Nc1ccc2c(O)c(C(=O)NCc3ccc(Cl)cc3)c(=O)[nH]c2c1` [CBK017559] the figure was 88.9%; with `CCCN(Cc1cccs1)C1Cc2cc(OC)c(OC)cc2C1` [CBK017567C], 96.8%.
Same read-out and setting: with `CC(=O)Oc1cc(Cl)ccc1C(=O)Nc1nnc(C(F)(F)F)s1` [CBK017569] the figure was 84%.
Consider `CCCN(CCCc1ccccc1)C1Cc2cc(OC)c(OC)cc2C1` [CBK017596C], for which, under “bulk resorufin, single well”, the viability at 28.5 h, 10 µM was 96.6%.
In the case of `O=C(Nc1ccc(C(F)(F)F)cc1)C1=C(O)CN(c2ccc(Cl)cc2)C1=O` [CBK017603], the viability at 28.5 h, 10 µM came out at 84.8%.
With `O=C(N[C@@H](Cc1ccc(OCc2ccc(Cl)cc2Cl)cc1)C(=O)O)C1CCCC1` [CBK017610], the viability at 28.5 h, 10 µM was 82.9%.
Turning to `O=C1O[C@@H](CCl)CN1c1ccc(N2CCOCC2)c(F)c1` [CBK017613], the viability at 28.5 h, 10 µM worked out at 105%.
On to `O=C1CCCN1CCCNC(=O)C1(c2ccccc2)COc2ccccc21` (centres unmarked) [CBK017653], for which the viability at 28.5 h, 10 µM was determined as 92.3%.
On the same count and under the same terms, with `CCCOc1ccc(C2(CCCCN3CCCC3)C(=O)Oc3ccc(C(C)(C)C)cc32)cc1` (centres unmarked) [CBK017655C] the figure was 99.1%; with `CC(C)N(CCC(c1ccccc1)c1cc(Br)ccc1OCc1ccccc1)C(C)C` (centres unmarked) [CBK017656], 79.4%.
Consider `Cc1cccc(C)c1NC(=O)C(C#N)C(=O)c1nn(-c2ccccc2)c2c1CSc1ccccc1-2` (centres unmarked) [CBK017678], for which the viability at 28.5 h, 10 µM came out at 81.8%.
Still for that read-out and setting: with `N#C/C(C(=O)Nc1ccccc1)=C(/O)c1nn(-c2ccccc2)c2c1CSc1ccccc1-2` [CBK017685] the figure was 92.7%.

The term viability denotes a read-out of living cells in per cent, often relative to untreated cells.

The values are drawn from publication PMC12040169 (PLOS Biology, 2025).
